What was measured:
[1] = system: human cardiac fibroblasts; assay: Western blot analysis of Collagen 1 and Fibronectin protein; assay type: cell-based; conditions: 48 h
Method: Lysis was induced with 0.2 ml of buffer containing 20 mM Tris-HCL, pH 7.9, 137 mM NaCl, 1% Triton X-100, 5 mM EDTA, 10 mM NaF, 1 mM β-glycerophosphate, and protease inhibitor cocktail. The protein concentration of each lysate was measured using coomassie protein reagent from PIERCE. Twenty μg of protein from each sample was loaded and electrophoresed on 4-12% gradient polyacrylamide gels and electrophoretically transferred to nitrocellulose membranes (Invitrogen, San Diego, Calif.). The membranes were incubated with rabbit anti-human Collagen 1 antibody (Cortex Biochem, San Leandro, Calif.), HRP-conjugated anti-human Fibronectin antibody, or goat anti-Actin antibody (Santa Cruz Biotehnology, Santa Cruz, Calif.) in TBST buffer containing 20 mM Tris-HCl, pH 7.5, 150 mM NaCl, 0.1% Tween-20, and 5% nonfat dried milk at 4° C. for ˜16 h. For ERK phosphorylation, cells were treated with 0.5 μmol/L BNP in the presence of 1 μmol/L KT5823 or 10 μmol/L U0126 for 15 min; the membranes were incubated with rabbit anti-human phospho-ERK ½ antibody or rabbit anti-human ERK ½ antibody (Cell Signaling, Beverly, Mass.). For secondary antibody detection, membranes were incubated with HRP-conjugated anti-rabbit antibody or anti-goat antibody at room temperature for 1 h and washed 3 times with TBST buffer. The blots were soaked in ECL Plus reagent for 5 min and exposed to KODAK x-ray film. Signals were identified and quantified using a Typhoon Scanner and Densitometer from Amersham Biosciences (Piscataway, N.J.). Data was analyzed by ANOVA using the Newman-Keuls test to assess significance. Results cGMP Production in Cardiac Fibroblasts

[2] = system: human cardiac fibroblasts; assay: Real-time RT-PCR gene expression in cardiac fibroblasts; assay type: cell-based; conditions: normalized to 18s RNA
Method: Real-time RT-PCR^18 was performed in a two-step manner. cDNA synthesis and real-time detection were carried out in a PTC-100™ Thermal Cycler (MJ Research Inc, Waltham, Mass.) and an ABI Prism™ 7700 Sequence Detection System (Applied Biosystems, Foster City, Calif.), respectively. Random hexamers (Qiagen, Valencia, Calif.) were used to generate cDNA from 200 ng RNA as described in Applied Biosystems User Bulletin #2. TaqMan™ PCR Core Reagent Kit or TaqMan™ Universal PCR Master Mix (Applied Biosystems) were used in subsequent PCR reactions according to the manufacturer's protocols. Relative quantitation of gene expression was performed using the relative standard curve method. All real-time RT-PCR reactions were performed in triplicate.
Sequence specific primers and probes were designed using Primer Express Version 2 software (Applied Biosystems). Sequences of primers and probes can be found in Table 1 below. Expression levels were normalized to 18S rRNA. The selection of 18S rRNA as an endogenous control was based on an evaluation of the ΔCT levels (Applied Biosystems document # 4308134C) of 6 “housekeeping” genes: Cyclophilin A, 18S, GAPDH, β-actin, β-Glucuronidase, and Hypoxanthine Guanine Phosphoribosyl Transferase.

[3] = system: human cardiac fibroblasts; assay: BrdU incorporation, cardiac fibroblast proliferation; assay type: cell-based; conditions: 5 ng/ml TGFβ
Method: Cells were placed in 96-well plates and cultured for 24 h before changing to serum-free medium. […] Subsequently, 10 μmol/L of 5-bromo-2′-deoxyuridine (BrdU) was added to the cells, and they were cultured for an additional 24 h. BrdU incorporation was detected using the Cell Proliferation ELISA kit (Roche, Indianapolis, Ind.). Data was analyzed by ANOVA using the Newman-Keuls test to assess significance.

[4] = system: human cardiac fibroblasts; assay: cDNA microarray gene expression profiling of TGFβ- and/or BNP-treated cardiac fibroblasts; conditions: for number of gene expression changes induced: 1.8-fold threshold
Method: Two lots of primary human cardiac fibroblasts, derived from a person (lot 1) and a person (lot 2), were provided by Cambrex Bio Science (Walkersville, Md.). Cells stained positive for α-smooth muscle actin and vimenfin antibodies corroborating their identity as cardiac fibroblasts and myofibroblasts. Both lots were used for the real-time RT-PCR studies; lot 1 was used for the microarray analysis. Cells at passage 3-5 were cultured in FGM containing 15% FBS. At confluence, cells were split and cultured in 6-well plates for 24 h.
Gene expression profiles were determined from cDNA microarrays containing 8,600 elements derived from clones isolated from normalized cDNA libraries or purchased from ResGen (Invitrogen Life Technologies, Carlsbad, Calif.). DNA for spotting was generated by PCR amplification using 5′amino-modified primers (BD Biosciences Clontech, Palo Alto, Calif.) derived from flanking vector sequences. Amplified DNA was purified in a 96-well format using Qiagen's Qiaquick columns (Valencia, Calif.) according to the manufacturer's recommendations. Samples were eluted in Milli-Q purified water, dried to completion and resuspended in 7 μl of 3×SSC. A fluorescent assay using PicoGreen (Molecular Probes, Eugene, Oreg.) was randomly performed on 12% of the PCR products to determine the average yield after purification; yields were ˜1.5 μg of DNA which corresponds to a concentration of 214 μg/ml. Purified DNA was arrayed from 384-well microtiter plates onto lysine-coated glass slides using an OmniGrid II microarrayer (GeneMachines, San Carlos, Calif.). After printing, DNA was cross-linked to the glass with 65 mjoules UV irradiation and reactive amines were blocked by treatment with succinic anhydride.
Total RNA was extracted from cells using Qiagen's RNeasy kit; two wells from a 6 well plate were pooled to yield a total of 4×10^5 cells per treatment. RNA was amplified using a modified Eberwine protocol^5 that incorporated a polyA tail into the amplified RNA. Fluorescently-labeled cDNA probes were generated by reverse transcription of 4 μg of RNA with SuperScript II (Invitrogen Life Technologies, Carlsbad, Calif.) using anchored dT primers in the presence of Cy3 or Cy5 dUTP (Amersham, Piscataway, N.J.). Labeled cDNA probe pairs were precipitated with ethanol and purified using Qiaquick columns. Twenty μg each of poly(A) DNA, yeast tRNA, and human Cot1 DNA (Applied Genetics, Melbourne, Fla.) was added to the eluant. The samples were dried to completion and resuspended in 12.5 μl 3×SSC, 0.1% SDS. Probes were heated to 95° C. for 5 minutes, applied to the arrays under a 22 mm^2 cover slip and allowed to hybridize for at least 16 h at 65° C. The arrays were washed at 55° C. for 10 minutes in 2×SSC, 0.1% SDS, followed by two washes at room temperature in 1×SSC (10 min) and 0.2×SSC (15 min). Hybridization of each fluorophore was quantified using an Axon GenePix 4000A scanner.
Differential expression values were expressed as the ratio of the median of background-subtracted fluorescent intensity of the experimental RNA to the median of background-subtracted fluorescent intensity of the control RNA. For ratios greater than or equal to 1.0, the ratio was expressed as a positive value. For ratios less than 1.0, the ratio was expressed as the negative reciprocal (i.e., a ratio of 0.5=−2.0). Median ratios were normalized to 1.0 using two pools of 3000 randomly chosen cDNAs in each pool. Six replicates of each of the two pools were printed in 4 evenly distributed blocks of the array. Expression data was rejected if neither channel produced a signal of at least 2.0-fold over background. Differential expression ratios were determined as the mean of the two values from dye-swapped duplicates.

TGFβ
induction of Collagen 1 protein synthesis [1]: ~3 fold | ACTA2 expression level relative to control ([2]; 6 h, lot 1): 1.1 ± 0.11 | CTGF expression level relative to control ([2]; 6 h, lot 1): 3.5 ± 0.08 | Collagen 1 expression level relative to control ([2]; 6 h, lot 1): 1.9 ± 0.04 | Fibronectin expression level relative to control ([2]; 6 h, lot 1): 1.1 ± 0.17 | IL6 expression level relative to control ([2]; 6 h, lot 1): 3.6 ± 0.27 | IL11 expression level relative to control ([2]; 6 h, lot 1): 13.3 ± 0.89 | PTGS2/COX-2 expression level relative to control ([2]; 6 h, lot 1): 9.0 ± 1.49 | SERPINE1/PAI-1 expression level relative to control ([2]; 6 h, lot 1): 7.3 ± 0.44 | TIMP3 expression level relative to control ([2]; 6 h, lot 1): 1.4 ± 0.03 | ACTA2 expression level relative to control ([2]; 24 h, lot 1): 2.2 ± 0.00 | CTGF expression level relative to control ([2]; 24 h, lot 1): 3.3 ± 0.25 | Collagen 1 expression level relative to control ([2]; 24 h, lot 1): 3.3 ± 0.05 | Fibronectin expression level relative to control ([2]; 24 h, lot 1): 1.0 ± 0.05 | IL6 expression level relative to control ([2]; 24 h, lot 1): 1.7 ± 0.14 | IL11 expression level relative to control ([2]; 24 h, lot 1): 32.3 ± 0.82 | PTGS2/COX-2 expression level relative to control ([2]; 24 h, lot 1): 3.5 ± 0.67 | SERPINE1/PAI-1 expression level relative to control ([2]; 24 h, lot 1): 8.5 ± 0.08 | TIMP3 expression level relative to control ([2]; 24 h, lot 1): 2.6 ± 0.26 | ACTA2 expression level relative to control ([2]; 24 h, lot 2): 2.3 ± 0.12 | CTGF expression level relative to control ([2]; 24 h, lot 2): 2.2 ± 0.16 | Collagen 1 expression level relative to control ([2]; 24 h, lot 2): 1.5 ± 0.09 | Fibronectin expression level relative to control ([2]; 24 h, lot 2): 1.0 ± 0.02 | IL6 expression level relative to control ([2]; 24 h, lot 2): 1.4 ± 0.05 | IL11 expression level relative to control ([2]; 24 h, lot 2): 7.7 ± 0.81 | PTGS2/COX-2 expression level relative to control ([2]; 24 h, lot 2): 4.9 ± 0.36 | SERPINE1/PAI-1 expression level relative to control ([2]; 24 h, lot 2): 2.4 ± 0.06 | TIMP3 expression level relative to control ([2]; 24 h, lot 2): 1.5 ± 0.12 | ACTA2 expression level relative to control ([2]; 48 h, lot 1): 1.0 ± 0.19 | CTGF expression level relative to control ([2]; 48 h, lot 1): 3.1 ± 0.01 | Collagen 1 expression level relative to control ([2]; 48 h, lot 1): 3.8 ± 0.38 | Fibronectin expression level relative to control ([2]; 48 h, lot 1): 2.2 ± 0.38 | IL6 expression level relative to control ([2]; 48 h, lot 1): 1.6 ± 0.12 | IL11 expression level relative to control ([2]; 48 h, lot 1): 17.6 ± 0.22 | PTGS2/COX-2 expression level relative to control ([2]; 48 h, lot 1): 2.2 ± 0.12 | SERPINE1/PAI-1 expression level relative to control ([2]; 48 h, lot 1): 8.4 ± 1.33 | TIMP3 expression level relative to control ([2]; 48 h, lot 1): 3.0 ± 0.34 | ACTA2 expression level relative to control ([2]; 48 h, lot 2): 2.5 ± 0.13 | CTGF expression level relative to control ([2]; 48 h, lot 2): 2.1 ± 0.14 | Collagen 1 expression level relative to control ([2]; 48 h, lot 2): 2.5 ± 0.32 | Fibronectin expression level relative to control ([2]; 48 h, lot 2): 2.0 ± 0.39 | IL6 expression level relative to control ([2]; 48 h, lot 2): 1.4 ± 0.17 | IL11 expression level relative to control ([2]; 48 h, lot 2): 5.9 ± 0.18 | PTGS2/COX-2 expression level relative to control ([2]; 48 h, lot 2): 5.4 ± 0.92 | SERPINE1/PAI-1 expression level relative to control ([2]; 48 h, lot 2): 2.6 ± 0.03 | TIMP3 expression level relative to control ([2]; 48 h, lot 2): 1.7 ± 0.13 | increase in cardiac fibroblast proliferation (BrdU incorporation) [3]: ~50% | number of gene expression changes induced ([4]; 24 h): 394 | TNFAIP6 expression elevation ([4]; 24 h, microarray): ~3 fold | TNFSF4 expression elevation ([4]; 24 h, microarray): ~3 fold | number of gene expression changes induced ([4]; 48 h): 501

— patent US20060019890A1, “Method for treating cardiac remodeling following myocardial injury” (priority 2004, published 2006)
